Assay results: US7943749B2, “Antimicrobial 2-deoxystreptamine compounds” (Isis Pharmaceuticals, Inc., priority 2004, dated 2011)

What was measured:
[1] = target: 16S ribosomal subunit RNA target; test: Mass spectrometry based binding assay (FTICR), 16S
Description: In a typical experiment, 10 μL of an aqueous solution containing 100 mM ammonium acetate buffer, 2.5 or 5 μM of each RNA, and 33% isopropyl alcohol (to aid ion desolvation) was prepared with different concentrations of each ligand or ligand mixture. Samples were introduced into the electrospray ionization source (negative ionization mode) at 1 μL/min and ions were stored for 1 sec in an RF-only hexapole following desolvation. The abundances were integrated from the respective ions for free RNA and the ligand-RNA complex. The primary (1:1 RNA:ligand) and secondary (1:2 complex, if observed). […] The peak ratios were measured at each concentration, then a plot of complex/free RNA versus concentration of ligand added was fitted to a second (or higher) order binding polynomial to determine the KD.

[2] = test system: E. coli S30 bacterial extract (pBestLuc luciferase reporter); test: Coupled bacterial transcription/translation assay; format: biochemical; conditions: read-out: Trans/trans IC50
Description: The DNA template, pBestLuc™ (Promega), is a plasmid containing a reporter gene for firefly luciferase fused to a strong tac promoter and ribosome binding site. Messenger RNA from 1 μg pBestLuc is transcribed and translated in E. coli S30 bacterial extract in the presence or absence of test compound. Compounds are tested in a black 96 well microtiter plate with an assay volume of 35 μL. […] The transcription/translation reaction is incubated for 35 minutes at 37° C. followed by detection of functional luciferase with the addition of 30 μL LucLite™ (Packard). Light output is quantitated on a Packard TopCount.

E. Coli = test: MIC, E. Coli; format: cell-based; conditions: 24 h, range between growth and complete inhibition;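 further: minimum inhibitory concentration determined in duplicate in 96-well plates, compounds given in 4% aqueous DMSO, with ampicillin and tetracycline as positive controls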
S. Aureus = test: MIC, S. Aureus; format: cell-based; conditions: 24 h, range between growth and complete inhibition
E. coli ATCC (25922) = test: MIC, E. coli ATCC 25922; format: cell-based; conditions: 24 h
S. aureus ATCC(13709) = test: MIC, S. aureus ATCC 13709; format: cell-based; conditions: 24 h
P. aurginosa ATCC(25416) = test: MIC, P. aurginosa ATCC 25416; format: cell-based; conditions: 24 h
P. aurginosa ATCC(29248) = test: MIC, P. aurginosa ATCC 29248; format: cell-based; conditions: 24 h
[3] = test system: K. pneumoniae ATCC (10031); test: MIC, K. pneumoniae ATCC 10031; format: cell-based; conditions: 24 h
P. vulgaris ATCC(8427) = conditions: 24 h
Description: The MIC assays are carried out in 150 μL volume in duplicate in 96-well clear flat-bottom plates. The bacterial suspension from an overnight culture growth in appropriate medium is added to a solution of test compound in 4% DMSO in water. Final bacterial inoculum is approximately 10^5-10^6 CFU/well. […] Both ampicillin and tetracycline are used as antibiotic-positive controls in each screening assay for S. pyogenes, E. coli imp-, E. coli, S. aureus, E. faecalis, K. pneumoniae and P. vulgaris. Ciprofloxacin is used as an antibiotic positive control in each screening assay for P. aeruginosa.
The following compounds were prepared using methods illustrated in the previous examples. The compounds were also examined in standard bacterial assays against E. Coli, S. Aureus, P. aurginosa, K. pneumoniae, P. vulgaris, and A. baumannii to determine activities. Each of the bacterial cultures that are available from ATCC (www.atcc.org) is identified by its ATCC number. A. baumannii is gentamicin sensitive Acinetobacter baumannii #2 from Walter Reed.

[4] = test system: gentamicin sensitive Acinetobacter baumannii #2 from Walter Reed; test: MIC, A. baumannii WReed 2; format: cell-based; conditions: 24 h

Row | SMILES | Kd [1] [nM] | IC50 [2] [nM] | MIC E. Coli. (E. Coli) [µM] | MIC S. Aureus (S. Aureus) | MIC E. coli ATCC (25922) (E. coli ATCC (25922)) [µM] | MIC S. aureus ATCC(13709) (S. aureus ATCC(13709)) [µM] | MIC P. aurginosa ATCC(25416) (P. aurginosa ATCC(25416)) [µM] | MIC P. aurginosa ATCC(29248) (P. aurginosa ATCC(29248)) [µM] | MIC K. pneumoniae ATCC (10031) [3] [µM] | MIC P. vulgaris ATCC(8427) (P. vulgaris ATCC(8427)) [µM] | MIC A. baumannii WReed 2 [4] [µM]
1 | NCC1OC(OC2C(CO)OC(OC3C(O)C(N)CC(N)C3OC3OC(CO)C(O)C(O)C3N)C2OCCNc2cccnc2)C(N)C(O)C1O (centres unmarked) [IBIS00560798] | 550 | 80 | 3 to 6 | 0.6-1^ μM | – | – | – | – | – | – | –
2 | NCC1OC(OC2C(CO)OC(OC3C(O)C(N)CC(N)C3OC3OC(CO)C(O)C(O)C3N)C2OCCN(CCCc2ccccc2)CCc2ccccc2)C(N)C(O)C1O (centres unmarked) [IBIS00561969] | – | – | – | – | 10 to 20 | 0.6 to 1.2 | 10 to 20 | >40 | 2.5 to 5.0 | 10 to 20 | 10 to 20
